Measured values reported in ChEMBL document CHEMBL3885861, “Open TG-GATES”.

Organism: Rattus norvegicus
Assay: Open TG-GATES - Regimen: Daily Repeat
Type: toxicity, organism-based, Sprague-Dawley
Design: regimen Daily Repeat, gender Male, age 6 weeks
Details: in vivo, po, 0 mg/kg, route gavage, dose level Control; for APTT / Bas / Eos / Fbg / Hb / Ht / Lym / MCH / MCHC / MCV / Mono / Neu / PT / Plat / RBC / Ret / WBC: tissue Blood; for KIDNEY_L / KIDNEY_R / KIDNEY_TOTAL: tissue Kidney; for LIVER: tissue Liver; for A/G / ALP / ALT / AST / BUN / CRE / Ca / Cl / DBIL / GLC / IP / K / LDH / Na / PL / RALB / TBIL / TC / TG / TP / gamma-GTP: tissue Plasma

CCc1oc2ccccc2c1C(=O)c1cc(Br)c(O)c(Br)c1 [BENZBROMARONE] was tested, and the TERMINAL_BW (72 h, time 3 day) was 230.4 g, the APTT (72 h, time 3 day) was 16.2 s and the Bas (72 h, time 3 day) was 0%. The Eos (72 h, time 3 day) was 1.6%, the Fbg (72 h, time 3 day) was 232 mg/dL and the Hb (72 h, time 3 day) was 14.5 g/dL. For the same compound, the Ht (72 h, time 3 day) was 42.7%, the Lym (72 h, time 3 day) was 73% and the MCH (72 h, time 3 day) was 22.5 pg. The MCHC (72 h, time 3 day) was 34%, the MCV (72 h, time 3 day) was 66.2 fL and the Mono (72 h, time 3 day) was 6.6%. For the same compound, the Neu (72 h, time 3 day) was 18.6%, the PT (72 h, time 3 day) was 11.7 s and the Plat (72 h, time 3 day) was 111.1 x10_4/uL. For the same compound, the RBC (72 h, time 3 day) was 645.6 x10_4/ul, the Ret (72 h, time 3 day) was 7.2% and the WBC (72 h, time 3 day) was 113.8 x10_2/uL. It also gave a KIDNEY_L (72 h, time 3 day) of 1 g, a KIDNEY_R (72 h, time 3 day) of 1 g and a KIDNEY_TOTAL (72 h, time 3 day) of 2 g. It also gave an LIVER (72 h, time 3 day) of 11.1 g, an A/G (72 h, time 3 day) of 2 and an ALP (72 h, time 3 day) of 921.2 IU/L. The ALT (72 h, time 3 day) was 34.6 IU/L, the AST (72 h, time 3 day) was 62.8 IU/L and the BUN (72 h, time 3 day) was 16.4 mg/dL. For the same compound, the CRE (72 h, time 3 day) was 0.5 mg/dL, the Ca (72 h, time 3 day) was 9.9 mg/dL and the Cl (72 h, time 3 day) was 106.3 meq/L. It also gave a DBIL (72 h, time 3 day) of 0.008 mg/dL, a GLC (72 h, time 3 day) of 197 mg/dL and an IP (72 h, time 3 day) of 7.5 mg/dL. It also gave a K (72 h, time 3 day) of 5.1 meq/L, an LDH (72 h, time 3 day) of 84.6 IU/L and a Na (72 h, time 3 day) of 139.5 meq/L. It also gave a PL (72 h, time 3 day) of 156.8 mg/dL, an RALB (72 h, time 3 day) of 3.9 g/dL and a TBIL (72 h, time 3 day) of 0.3 mg/dL. The TC (72 h, time 3 day) was 82 mg/dL, the TG (72 h, time 3 day) was 106 mg/dL and the TP (72 h, time 3 day) was 5.9 g/dL. The gamma-GTP (72 h, time 3 day) was 0.6 IU/L, the TERMINAL_BW ([…], time 7 day) was 262.9 g and the TERMINAL_BW ([…], time 14 day) was 315 g. The TERMINAL_BW ([…], time 28 day) was 382.2 g, the APTT ([…], time 7 day) was 16.8 s and the Bas ([…], time 7 day) was 0%. The Eos ([…], time 7 day) was 1%, the Fbg ([…], time 7 day) was 236.4 mg/dL and the Hb ([…], time 7 day) was 14.5 g/dL. It also gave a Ht ([…], time 7 day) of 42.7%, a Lym ([…], time 7 day) of 80% and an MCH ([…], time 7 day) of 21.4 pg. For the same compound, the MCHC ([…], time 7 day) was 33.8%, the MCV ([…], time 7 day) was 63.3 fL and the Mono ([…], time 7 day) was 6.6%. For the same compound, the Neu ([…], time 7 day) was 12.4%, the PT ([…], time 7 day) was 11.9 s and the Plat ([…], time 7 day) was 113.2 x10_4/uL. It also gave an RBC ([…], time 7 day) of 675 x10_4/ul, a Ret ([…], time 7 day) of 5.5% and a WBC ([…], time 7 day) of 109.7 x10_2/uL. It also gave an APTT ([…], time 14 day) of 16 s, a Bas ([…], time 14 day) of 0% and an Eos ([…], time 14 day) of 1.6%. The Fbg ([…], time 14 day) was 223.8 mg/dL, the Hb ([…], time 14 day) was 14.7 g/dL and the Ht ([…], time 14 day) was 43.8%. For the same compound, the Lym ([…], time 14 day) was 77.4%, the MCH ([…], time 14 day) was 20.9 pg and the MCHC ([…], time 14 day) was 33.6%. For the same compound, the MCV ([…], time 14 day) was 62.3 fL, the Mono ([…], time 14 day) was 4.4% and the Neu ([…], time 14 day) was 16.8%. For the same compound, the PT ([…], time 14 day) was 11.8 s, the Plat ([…], time 14 day) was 110.7 x10_4/uL and the RBC ([…], time 14 day) was 703.4 x10_4/ul. For the same compound, the Ret ([…], time 14 day) was 4.7%, the WBC ([…], time 14 day) was 138.1 x10_2/uL and the APTT ([…], time 28 day) was 16.6 s. The Bas ([…], time 28 day) was 0%, the Eos ([…], time 28 day) was 1% and the Fbg ([…], time 28 day) was 230.2 mg/dL. For the same compound, the Hb ([…], time 28 day) was 15.5 g/dL, the Ht ([…], time 28 day) was 46.5% and the Lym ([…], time 28 day) was 83.8%. It also gave an MCH ([…], time 28 day) of 18.6 pg, an MCHC ([…], time 28 day) of 33.3% and an MCV ([…], time 28 day) of 55.9 fL. The Mono ([…], time 28 day) was 3.8%, the Neu ([…], time 28 day) was 11.4% and the PT ([…], time 28 day) was 12 s. It also gave a Plat ([…], time 28 day) of 106.6 x10_4/uL, an RBC ([…], time 28 day) of 832 x10_4/ul and a Ret ([…], time 28 day) of 2.6%. The WBC ([…], time 28 day) was 136.5 x10_2/uL, the KIDNEY_L ([…], time 7 day) was 1.1 g and the KIDNEY_R ([…], time 7 day) was 1.2 g. It also gave a KIDNEY_TOTAL ([…], time 7 day) of 2.3 g, a KIDNEY_L ([…], time 14 day) of 1.2 g and a KIDNEY_R ([…], time 14 day) of 1.2 g. It also gave a KIDNEY_TOTAL ([…], time 14 day) of 2.4 g, a KIDNEY_L ([…], time 28 day) of 1.4 g and a KIDNEY_R ([…], time 28 day) of 1.4 g. It also gave a KIDNEY_TOTAL ([…], time 28 day) of 2.9 g, an LIVER ([…], time 7 day) of 12.8 g and an LIVER ([…], time 14 day) of 13.9 g. It also gave an LIVER ([…], time 28 day) of 15.8 g, an A/G ([…], time 7 day) of 1.7 and an ALP ([…], time 7 day) of 777 IU/L. The ALT ([…], time 7 day) was 31.8 IU/L, the AST ([…], time 7 day) was 60.6 IU/L and the BUN ([…], time 7 day) was 20.4 mg/dL. It also gave a CRE ([…], time 7 day) of 0.5 mg/dL, a Ca ([…], time 7 day) of 10.3 mg/dL and a Cl ([…], time 7 day) of 106.5 meq/L. For the same compound, the DBIL ([…], time 7 day) was 0.02 mg/dL, the GLC ([…], time 7 day) was 197.2 mg/dL and the IP ([…], time 7 day) was 7.1 mg/dL. The K ([…], time 7 day) was 5.1 meq/L, the LDH ([…], time 7 day) was 102.2 IU/L and the Na ([…], time 7 day) was 138.3 meq/L. It also gave a PL ([…], time 7 day) of 157.8 mg/dL, an RALB ([…], time 7 day) of 3.9 g/dL and a TBIL ([…], time 7 day) of 0.3 mg/dL. It also gave a TC ([…], time 7 day) of 74.4 mg/dL, a TG ([…], time 7 day) of 136.4 mg/dL and a TP ([…], time 7 day) of 6.1 g/dL. For the same compound, the gamma-GTP ([…], time 7 day) was 1 IU/L, the A/G ([…], time 14 day) was 1.8 and the ALP ([…], time 14 day) was 712.8 IU/L. The ALT ([…], time 14 day) was 30.6 IU/L, the AST ([…], time 14 day) was 62.6 IU/L and the BUN ([…], time 14 day) was 18.2 mg/dL. For the same compound, the CRE ([…], time 14 day) was 0.5 mg/dL, the Ca ([…], time 14 day) was 10.2 mg/dL and the Cl ([…], time 14 day) was 108.1 meq/L. The DBIL ([…], time 14 day) was 0.008 mg/dL, the GLC ([…], time 14 day) was 187.6 mg/dL and the IP ([…], time 14 day) was 6.5 mg/dL. For the same compound, the K ([…], time 14 day) was 4.9 meq/L, the LDH ([…], time 14 day) was 85.6 IU/L and the Na ([…], time 14 day) was 140.1 meq/L. For the same compound, the PL ([…], time 14 day) was 158.6 mg/dL, the RALB ([…], time 14 day) was 3.9 g/dL and the TBIL ([…], time 14 day) was 0.3 mg/dL. The TC ([…], time 14 day) was 78.6 mg/dL, the TG ([…], time 14 day) was 139.8 mg/dL and the TP ([…], time 14 day) was 6.1 g/dL. For the same compound, the gamma-GTP ([…], time 14 day) was 1.2 IU/L, the A/G ([…], time 28 day) was 1.6 and the ALP ([…], time 28 day) was 607.6 IU/L. It also gave an ALT ([…], time 28 day) of 28.2 IU/L, an AST ([…], time 28 day) of 58 IU/L and a BUN ([…], time 28 day) of 19.6 mg/dL. It also gave a CRE ([…], time 28 day) of 0.6 mg/dL, a Ca ([…], time 28 day) of 9.7 mg/dL and a Cl ([…], time 28 day) of 106.7 meq/L. For the same compound, the DBIL ([…], time 28 day) was 0.006 mg/dL, the GLC ([…], time 28 day) was 182 mg/dL and the IP ([…], time 28 day) was 6.5 mg/dL. It also gave a K ([…], time 28 day) of 4.5 meq/L, an LDH ([…], time 28 day) of 89.8 IU/L and a Na ([…], time 28 day) of 139.4 meq/L. It also gave a PL ([…], time 28 day) of 146.4 mg/dL, an RALB ([…], time 28 day) of 4 g/dL and a TBIL ([…], time 28 day) of 0.3 mg/dL. For the same compound, the TC ([…], time 28 day) was 70.4 mg/dL, the TG ([…], time 28 day) was 146.8 mg/dL and the TP ([…], time 28 day) was 6.4 g/dL. It also gave a gamma-GTP ([…], time 28 day) of 1.4 IU/L.
